Measurements reported in ChEMBL document CHEMBL1201862, “PubChem BioAssay data set” (2004).
Activity calls are given as the source filed them.

What was measured:
[1] = biological target: ADP-ribosylation factor GTPase-activating protein 1 (Rattus norvegicus, UniProt Q62848); assay: Fluorescence polarization-based biochemical high throughput dose response screening assay to identify inhibitors of ADP-ribosylation factor GTPase activating protein 1 (ARFGAP1).; assay type: functional
[2] = biological target: T1, Methionyl-tRNA synthetase, putative (Trypanosoma brucei brucei, UniProt Q38C91); assay type: functional, Trypanosoma brucei brucei strain 927/4 GUTat10.1
T1 sequence (Q38C91 whole entry): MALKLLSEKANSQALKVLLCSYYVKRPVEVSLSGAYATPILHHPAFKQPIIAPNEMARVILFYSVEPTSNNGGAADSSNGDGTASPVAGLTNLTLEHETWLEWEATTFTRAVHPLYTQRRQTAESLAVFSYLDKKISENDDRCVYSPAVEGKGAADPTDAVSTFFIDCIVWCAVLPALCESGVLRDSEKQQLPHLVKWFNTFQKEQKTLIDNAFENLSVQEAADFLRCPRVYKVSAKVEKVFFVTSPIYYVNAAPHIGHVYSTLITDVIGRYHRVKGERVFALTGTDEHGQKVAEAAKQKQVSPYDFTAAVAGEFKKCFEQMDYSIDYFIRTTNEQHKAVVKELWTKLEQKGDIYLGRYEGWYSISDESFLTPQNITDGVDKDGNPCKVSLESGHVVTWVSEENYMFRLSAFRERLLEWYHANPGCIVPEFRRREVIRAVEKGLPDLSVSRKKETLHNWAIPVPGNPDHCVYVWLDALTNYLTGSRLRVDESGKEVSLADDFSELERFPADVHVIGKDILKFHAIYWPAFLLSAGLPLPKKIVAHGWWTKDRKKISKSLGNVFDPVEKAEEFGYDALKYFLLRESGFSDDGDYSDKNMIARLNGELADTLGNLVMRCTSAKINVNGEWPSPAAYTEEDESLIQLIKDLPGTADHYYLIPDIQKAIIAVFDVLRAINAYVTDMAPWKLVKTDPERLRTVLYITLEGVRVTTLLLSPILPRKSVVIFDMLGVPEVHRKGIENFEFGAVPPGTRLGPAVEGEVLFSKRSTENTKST

[3] = biological target: T1, Methionyl-tRNA synthetase, putative; assay type: functional, Trypanosoma brucei brucei strain 927/4 GUTat10.1; remark: listed apart in the source
[4] = Counterscreen for inhibitors of Trypanosoma brucei methionyl tRNA synthetase (MetRS): Luminescence-based cell-based high throughput dose response assay to identify compounds that are cytotoxic to Jurkat human T lymphocyte cells.; assay type: functional
Protein Wnt-3a = Protein Wnt-3a (Mus musculus, UniProt P27467); assay: Wnt3a-driven reporter signaling inhibition, dose response, selectivity assay for Gli-SUFU antagonist project, Wnt-LIGHT cells, luminescence (AID 651570); assay type: functional; conditions: read-out: IC50_Mean;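 note: Wnt-LIGHT reporter cells stimulated with conditioned medium from Wnt3a-producing cells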
Chain of Protein Wnt-3a (P27467 whole entry): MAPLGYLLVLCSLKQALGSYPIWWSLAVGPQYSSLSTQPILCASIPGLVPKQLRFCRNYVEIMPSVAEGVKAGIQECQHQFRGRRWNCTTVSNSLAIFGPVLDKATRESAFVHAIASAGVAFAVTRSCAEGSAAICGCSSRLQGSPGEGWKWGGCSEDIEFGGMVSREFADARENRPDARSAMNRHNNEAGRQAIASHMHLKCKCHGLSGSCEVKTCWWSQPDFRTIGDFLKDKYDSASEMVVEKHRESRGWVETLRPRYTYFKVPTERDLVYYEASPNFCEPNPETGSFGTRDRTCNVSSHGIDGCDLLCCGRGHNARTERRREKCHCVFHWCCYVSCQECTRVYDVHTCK

[5] = biological target: T2, DNA repair protein RAD52 homolog (Homo sapiens, UniProt P43351); assay type: functional, biochemical
T2 sequence (P43351 whole entry): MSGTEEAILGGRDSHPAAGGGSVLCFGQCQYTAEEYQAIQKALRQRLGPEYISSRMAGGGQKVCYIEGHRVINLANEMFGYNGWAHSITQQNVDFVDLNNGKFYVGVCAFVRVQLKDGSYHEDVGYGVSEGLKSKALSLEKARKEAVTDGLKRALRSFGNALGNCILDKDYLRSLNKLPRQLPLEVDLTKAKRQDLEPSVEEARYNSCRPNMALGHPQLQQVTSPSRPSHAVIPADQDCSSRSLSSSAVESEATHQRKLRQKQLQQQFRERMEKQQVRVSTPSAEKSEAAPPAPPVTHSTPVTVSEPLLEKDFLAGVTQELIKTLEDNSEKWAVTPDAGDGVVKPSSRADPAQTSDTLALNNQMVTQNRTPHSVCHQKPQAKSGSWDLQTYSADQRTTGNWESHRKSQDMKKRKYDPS

[6] = biological target: DNA repair and recombination protein RAD54-like (Homo sapiens, UniProt Q92698); assay: inhibitors of human RAD54 branch migration, confirmation, biochemical, fluorescence, cherry-picked samples, dose series (AID 651657); assay type: functional
Chain of DNA repair and recombination protein RAD54-like (Q92698 whole entry): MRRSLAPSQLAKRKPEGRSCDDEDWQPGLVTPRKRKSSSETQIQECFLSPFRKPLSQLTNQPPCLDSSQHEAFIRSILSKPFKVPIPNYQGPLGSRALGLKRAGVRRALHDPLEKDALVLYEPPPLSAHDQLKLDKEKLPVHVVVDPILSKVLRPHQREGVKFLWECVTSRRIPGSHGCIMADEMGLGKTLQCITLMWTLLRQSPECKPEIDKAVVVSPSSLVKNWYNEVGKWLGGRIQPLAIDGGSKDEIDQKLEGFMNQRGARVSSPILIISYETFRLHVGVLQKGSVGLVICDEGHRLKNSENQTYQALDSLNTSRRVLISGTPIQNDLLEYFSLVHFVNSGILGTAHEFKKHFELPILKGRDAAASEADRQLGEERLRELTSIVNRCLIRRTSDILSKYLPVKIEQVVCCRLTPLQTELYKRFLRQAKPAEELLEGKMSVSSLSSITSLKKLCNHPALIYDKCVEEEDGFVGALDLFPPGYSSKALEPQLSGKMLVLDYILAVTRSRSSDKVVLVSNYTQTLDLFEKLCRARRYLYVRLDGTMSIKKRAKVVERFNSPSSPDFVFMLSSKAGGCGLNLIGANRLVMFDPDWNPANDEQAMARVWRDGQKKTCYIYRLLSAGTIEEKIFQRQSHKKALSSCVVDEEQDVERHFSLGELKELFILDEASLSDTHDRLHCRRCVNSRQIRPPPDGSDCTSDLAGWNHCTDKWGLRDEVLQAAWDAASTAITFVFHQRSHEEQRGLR

[7] = StAR promoter reporter inhibition counter-screen, dose response, counter-screen for LRH-1 inverse agonist project, cell-based, luminescence, luciferase reporter (AID 651969); assay type: functional
[8] = biological target: Nuclear receptor subfamily 5 group A member 2 (Homo sapiens, UniProt O00482); assay type: functional, cell-based;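 note: HEK293T cells transfected with LRH-1 and a StAR promoter luciferase reporter; potency for inhibitors that lower LRH-1 driven reporter light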
Chain of Nuclear receptor subfamily 5 group A member 2 (O00482 whole entry): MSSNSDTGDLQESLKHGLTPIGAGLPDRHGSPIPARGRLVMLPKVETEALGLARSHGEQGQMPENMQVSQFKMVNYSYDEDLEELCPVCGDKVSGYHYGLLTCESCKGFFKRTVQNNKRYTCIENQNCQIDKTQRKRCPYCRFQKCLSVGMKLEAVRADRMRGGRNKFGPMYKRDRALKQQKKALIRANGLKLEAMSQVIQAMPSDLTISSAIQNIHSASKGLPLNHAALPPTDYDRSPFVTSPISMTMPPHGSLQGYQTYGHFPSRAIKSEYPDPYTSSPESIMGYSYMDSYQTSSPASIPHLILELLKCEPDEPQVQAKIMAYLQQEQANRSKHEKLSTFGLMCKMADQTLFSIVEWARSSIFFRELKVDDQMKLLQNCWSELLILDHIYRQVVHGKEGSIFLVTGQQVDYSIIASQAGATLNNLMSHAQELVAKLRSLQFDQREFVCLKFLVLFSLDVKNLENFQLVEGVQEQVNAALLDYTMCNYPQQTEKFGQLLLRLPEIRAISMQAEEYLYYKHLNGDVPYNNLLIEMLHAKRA

Steroidogenic factor 1 = Steroidogenic factor 1 (Homo sapiens, UniProt Q13285); assay: Counterscreen for inverse agonists of the liver receptor homolog-1 (LRH-1; NR5A2): Luminescence-based cell-based high throughput dose response assay to identify inverse agonists of the Steroidogenic Factor 1 Nuclear Receptor (SF1; NR5A1).; assay type: functional
Chain of Steroidogenic factor 1 (Q13285 whole entry): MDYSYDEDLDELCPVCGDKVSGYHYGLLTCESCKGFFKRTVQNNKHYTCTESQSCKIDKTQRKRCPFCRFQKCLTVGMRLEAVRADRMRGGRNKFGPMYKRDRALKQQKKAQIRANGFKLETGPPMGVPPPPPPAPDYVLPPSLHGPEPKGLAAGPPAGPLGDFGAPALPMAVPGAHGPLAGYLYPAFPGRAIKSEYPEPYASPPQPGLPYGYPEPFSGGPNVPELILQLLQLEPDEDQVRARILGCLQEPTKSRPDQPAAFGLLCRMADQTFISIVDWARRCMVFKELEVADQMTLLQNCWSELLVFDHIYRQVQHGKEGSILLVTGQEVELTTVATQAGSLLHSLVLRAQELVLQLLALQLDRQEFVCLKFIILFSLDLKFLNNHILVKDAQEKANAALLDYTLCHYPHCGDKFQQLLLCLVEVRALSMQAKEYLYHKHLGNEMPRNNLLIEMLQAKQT

[9] = inhibitors of intracellular T. cruzi replication, confirmation, NIH3T3 host cells, beta-gal luminescence (AID 2044); assay type: functional, cell-based;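 note: intracellular parasites grown in NIH/3T3 mouse fibroblasts as host cells; luminescent beta-galactosidase reporter signal from transgenic T. cruzi replicating inside host cells; inhibitors lower the luminescence signal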
INS1 = assay: beta cell apoptosis inhibitors, cytokine rescue, dose response, luminescence, retest (AID 449756); assay type: functional, cell-based; conditions: Rattus norvegicus;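 note: cell death triggered by IL-1 beta plus TNF-alpha plus IFN-gamma mixture; protective hits raise ATP signal compared with cytokine alone wells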
[10] = cytotoxicity toward NIH3T3 fibroblasts, dose response, counter-screen, cell-based, ATP luminescence, mouse fibroblasts (AID 2010); assay type: functional;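 note: cells exposed to compound for about 90 hours before reading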

Chain of ADP-ribosylation factor GTPase-activating protein 1 (Q62848 whole entry): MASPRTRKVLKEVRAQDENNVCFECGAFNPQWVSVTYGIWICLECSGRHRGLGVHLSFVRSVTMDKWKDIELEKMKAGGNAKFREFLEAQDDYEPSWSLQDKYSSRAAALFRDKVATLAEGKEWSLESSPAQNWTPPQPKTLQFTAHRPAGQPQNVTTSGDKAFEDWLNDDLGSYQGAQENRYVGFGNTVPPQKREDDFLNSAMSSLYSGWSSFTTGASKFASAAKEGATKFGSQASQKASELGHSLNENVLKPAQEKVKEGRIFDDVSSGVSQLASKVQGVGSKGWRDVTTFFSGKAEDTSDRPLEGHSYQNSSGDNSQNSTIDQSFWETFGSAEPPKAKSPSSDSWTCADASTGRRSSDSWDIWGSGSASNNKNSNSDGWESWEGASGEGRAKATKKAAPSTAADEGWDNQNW

Question: For `Cc1cc(NS(=O)(=O)c2ccc(NC(=S)NC(=O)c3cccc(S(=O)(=O)N(C)C)c3)cc2)no1`, which IC50 [1] is on record?
Answer: 46.6 µM (inactive)

Question: With `Cc1cc(Br)ccc1NC(=O)c1ccc(-n2cncn2)c([N+](=O)[O-])c1` as the compound, how does the IC50 [2] read?
Answer: 119 µM (inactive)

Question: What about the IC50 [3] of the same compound?
Answer: 5.79 µM (active)

Question: What about the IC50 [4] of the same compound?
Answer: 83.3 µM (inactive)

Question: Which IC50 (Protein Wnt-3a) does the source give for `Cc1cc(O)nc(SCC(=O)/C=C2\N(C)c3ccccc3C2(C)C)n1` here?
Answer: 50 µM (inactive)

Question: With `Cc1c(OCC(=O)NC2CC(C)(C)NC(C)(C)C2)ccc2c1oc(=O)c1ccccc12` as the compound, how does the AC50 [5] read?
Answer: 27.1 µM (active)

Question: What about the AC50 [6] of the same compound?
Answer: 22.4 µM (active)

Question: For `O=C(COC(=O)c1ccc[n+]([O-])c1)Nc1ccc([N+](=O)[O-])cc1Cl`, which IC50 [7] is on record?
Answer: 35.9 µM (inactive)

Question: What about the IC50 [8] of the same compound?
Answer: 3.98 µM (active)

Question: What about the IC50 (Steroidogenic factor 1) of the same compound?
Answer: 4.98 µM (active)

Question: For `Cc1cc(/C=C2/SC(=S)N(c3ccc([N+](=O)[O-])cc3)C2=O)c(C)n1-c1cccnc1`, which EC50 [9] is on record?
Answer: 0.915 µM (active)

Question: And the AC50 (INS1)?
Answer: 0.862 µM (active)

Question: And the EC50 [10]?
Answer: > 60 µM (inconclusive)

Question: And the IC50 (Protein Wnt-3a)?
Answer: 8.94 µM (active)
